Laboratory results: patent US20230338370A1, “Treatment of Cancer with TOR Kinase Inhibitors” (Signal Pharmaceuticals, LLC, priority 2012, published 2023)

Experiments:
Assay type in all cases: cell-based
HCC1187 [1] = assay: Growth inhibition assay for Breast Cancer (BC) Cell lines; settings: Homo sapiens; HCC1187, TN; 96 hours, Cell Titer-Glo
Experimental: (§1) Growth inhibition assay for Breast Cancer (BC) Cell lines. Compounds 1 (a TOR kinase inhibitor set forth herein having molecular formula C16H16N8O) and 2 (a TOR kinase inhibitor set forth herein having molecular formula C17H18N8O2) were dissolved in dimethyl sulfoxide (DMSO) to prepare a 10 mM stock solution. A serial titration was performed to produce a working concentration range of 1.5 µM to 10 mM. Aliquots to produce final concentrations of 1.5 nM to 10 µM were spotted via an acoustic dispenser (EDC ATS-100) into an empty 384-well plate. Compounds 1 and 2 were spotted in a 10-point serial dilution fashion (3-fold dilution) in duplicate within the plate. The DMSO concentration was kept constant for a final assay concentration of 0.1% DMSO. Plates were replicated for use with different cell lines and testing periods. After compound plate replication, all plates were sealed (Agilent ThermoLoc) and stored at -20° C. for up to 1 month. […] When ready for testing, plates were removed from the freezer, thawed, and unsealed just prior to the addition of the test cells. Prior to testing, cells were grown and expanded in culture flasks to provide sufficient amounts of starting material. Cells were then diluted to the appropriate densities and added directly to the compound-spotted 384-well plates. Cells were allowed to grow for 96 hours at 37° C./5% CO2. At the time when compound was added (t0), initial cell number was assessed via a viability assay (Cell Titer-Glo) by quantifying the level of luminescence generated by ATP present in viable cells. After 96 hours, cell viability of compound-treated cells was assessed via Cell Titer-Glo and luminescence measurement. Cell lines were assayed for growth inhibition by Compounds 1 and 2 in at least 3 independent tests. A control cell line (the lung tumor cell line, A549) was included in each of the assays. The compound response against this control cell line was monitored closely to enable comparison of the data generated through the assay period. All data were normalized and presented as a percentage of the DMSO-treated cells. Results were then expressed as a GI50 value. The GI50 value corrects for the cell count at time zero.

HCC2157 [2] = assay: as above; settings: Homo sapiens; HCC2157, TN; 96 hours, Cell Titer-Glo
Experimental: as §1

HS578T [3] = assay: as above; settings: Homo sapiens, Hs-578T, TN, 96 hours, Cell Titer-Glo
Experimental: as §1

MDA-MB-231 [4] = assay: as above; settings: Homo sapiens; MDA-MB-231, TN; 96 hours, Cell Titer-Glo
Experimental: as §1

BT-20 = assay: Apoptosis assay for BC Cell lines (Caspase 3/7-Glo); settings: BT-20, TN; 24 hours
Experimental: (§2) Apoptosis assay for BC Cell lines. Prior to testing, cells were grown and expanded in culture flasks to provide sufficient amounts of starting material. Cells were then diluted to their desired densities and added directly to compound-spotted 384-well plates. Cells were allowed to grow for 24 hours in 5% CO2 at 37° C. The apoptotic response was assessed by quantifying the activities of caspase 3 and caspase 7 (Caspase 3/7-Glo) in treated cells and control cells at the 24-hour time point. All data was normalized and represented as a value relative to the DMSO-treated cells. Results were then expressed as CalX, which is the minimum compound concentration required to double the levels of caspase 3/7 relative to those of the DMSO-treated cells during their treatment period.

BT-549 = assay: as above; settings: BT-549, TN; 24 hours
Experimental: as §2

CAL-120 = assay: as above; settings: CAL-120, TN; 24 hours
Experimental: as §2

CAL-148 = assay: as above; settings: CAL-148, TN; 24 hours
Experimental: as §2

CAL-51 = assay: as above; settings: CAL-51, TN; 24 hours
Experimental: as §2

CAL-85-1 = assay: as above; settings: CAL-85-1, TN; 24 hours
Experimental: as §2

DU4475 = assay: as above; settings: DU4475, TN; 24 hours
Experimental: as §2

HCC1143 = assay: as above; settings: HCC1143, TN; 24 hours
Experimental: as §2

HCC1187 [5] = assay: as above; settings: HCC1187, TN; 24 hours
Experimental: as §2

HCC1806 = assay: as above; settings: HCC1806, TN; 24 hours
Experimental: as §2

HCC1937 = assay: as above; settings: HCC1937, TN; 24 hours
Experimental: as §2

HCC2157 [6] = assay: as above; settings: HCC2157, TN; 24 hours
Experimental: as §2

HCC38 = assay: as above; settings: HCC38, TN; 24 hours
Experimental: as §2

HCC70 = assay: as above; settings: HCC70, TN; 24 hours
Experimental: as §2

HDQ-P1 = assay: as above; settings: HDQ-P1, TN; 24 hours
Experimental: as §2

HS578T [7] = assay: as above; settings: TN, 24 hours
Experimental: as §2

MB157 = assay: as above; settings: MB157, TN; 24 hours
Experimental: as §2

MDA-MB-157 = assay: as above; settings: MDA-MB-157, TN; 24 hours
Experimental: as §2

MDA-MB-231 [8] = assay: as above; settings: MDA-MB-231, TN; 24 hours
Experimental: as §2

MDA-MB-436 = assay: as above; settings: MDA-MB-436, TN; 24 hours
Experimental: as §2

MDA-MB-468 = assay: as above; settings: MDA-MB-468, TN; 24 hours
Experimental: as §2

MT-3 = assay: as above; settings: MT-3, TN; 24 hours
Experimental: as §2

CCN1C(=O)CNc2ncc(-c3ccc(-c4nc[nH]n4)nc3C)nc21 [Compound 1, 1-ethyl-7-(2-methyl-6-(1H-1,2,4-triazol-3-yl)pyridin-3-yl)-3,4-dihydropyrazino[2,3-b]pyrazin-2(1H)-one]
GI50 (HCC1187 [1]): 195 nM | GI50 (HCC2157 [2]): 51.5 nM | GI50 (HS578T [3]): 286 nM | GI50 (MDA-MB-231 [4]): 185 nM | CalX (minimum compound concentration required to double the levels of caspase 3/7) (BT-20): 0.6025 µM | CalX (minimum compound concentration required to double the levels of caspase 3/7) (BT-549): ≥10 µM | CalX (minimum compound concentration required to double the levels of caspase 3/7) (CAL-120): ≥10 µM | CalX (minimum compound concentration required to double the levels of caspase 3/7) (CAL-148): 0.1583 µM | CalX (minimum compound concentration required to double the levels of caspase 3/7) (CAL-51): 0.3611 µM | CalX (minimum compound concentration required to double the levels of caspase 3/7) (CAL-85-1): ≥10 µM | CalX (minimum compound concentration required to double the levels of caspase 3/7) (DU4475): 0.9448 µM | CalX (minimum compound concentration required to double the levels of caspase 3/7) (HCC1143): ≥10 µM | CalX (minimum compound concentration required to double the levels of caspase 3/7) (HCC1187 [5]): 0.6418 µM | CalX (minimum compound concentration required to double the levels of caspase 3/7) (HCC1806): ≥10 µM | CalX (minimum compound concentration required to double the levels of caspase 3/7) (HCC1937): ≥10 µM | CalX (minimum compound concentration required to double the levels of caspase 3/7) (HCC2157 [6]): 1.3472 µM | CalX (minimum compound concentration required to double the levels of caspase 3/7) (HCC38): ≥10 µM | CalX (minimum compound concentration required to double the levels of caspase 3/7) (HCC70): ≥10 µM | CalX (minimum compound concentration required to double the levels of caspase 3/7) (HDQ-P1): ≥10 µM | CalX (minimum compound concentration required to double the levels of caspase 3/7) (HS578T [7]): ≥10 µM | CalX (minimum compound concentration required to double the levels of caspase 3/7) (MB157): ≥10 µM | CalX (minimum compound concentration required to double the levels of caspase 3/7) (MDA-MB-157): ≥10 µM | CalX (minimum compound concentration required to double the levels of caspase 3/7) (MDA-MB-231 [8]): ≥10 µM | CalX (minimum compound concentration required to double the levels of caspase 3/7) (MDA-MB-436): ≥10 µM | CalX (minimum compound concentration required to double the levels of caspase 3/7) (MDA-MB-468): ≥10 µM | CalX (minimum compound concentration required to double the levels of caspase 3/7) (MT-3): 2.4106 µM
